The values that follow come from patent US8030294B2, “Compounds for the treatment of psychiatric or substance abuse disorders” (The McLean Hospital Corporation, priority 2000, dated 2011).

For data set [1], the system named is regional blood volume in putamen, caudate and thalamus. Nature of the data set: T2 relaxometry (T2-RT) fMRI in children with ADHD. Format: in vivo, human. The following applies: ADHD boys, vs placebo; P>0.7.
Description: A new fMRI procedure (T2 relaxometry or “T2-RT”) was developed to indirectly assess blood volume in the striatum (caudate and putamen) of boys 6-12 years of age under steady-state conditions. […] Children with ADHD were included if they met criteria for ADHD on structured diagnostic interview, and had at least 6 of 9 symptoms of inattention or hyperactivity-impulsivity. Children with ADHD took part in a triple blind (parent, child, rater), randomized, placebo-controlled study of effects of methylphenidate (0, 0.5, 0.8, 1.5 mg/kg in divided dose) on activity, attention, and fMRI. Children with ADHD were treated continuously for one week with placebo or a specific dose of methylphenidate and at the end of the week were tested for drug efficacy using objective measures of attention and activity and fMRI (See Methods) within 1-3 hours of their afternoon dose. The time between dose and testing was held constant for each subject throughout the four treatment conditions. Activity and attention were evaluated in unmedicated healthy controls using the same procedure as children with ADHD, and fMRI followed within the same time frame.
T2 relaxometry, a novel FMRI procedure, was used to derive steady state blood flow measures and to test for enduring medication effects. […]
Data set [2] in a line: Continuous performance task (CPT), a measure of attention, in children with ADHD. It is filed as in vivo, human. To be noted: ADHD boys (n=11), one week. The protocol:
(§1) A new fMRI procedure (T2 relaxometry or “T2-RT”) was developed to indirectly assess blood volume in the striatum (caudate and putamen) of boys 6-12 years of age under steady-state conditions. Six healthy control boys (10.2±1.5 yr) and eleven boys diagnosed with ADHD (9.3±1.6 yr) served as subjects in the study to examine fMRI differences between unmedicated healthy controls and ADHD children on either placebo or the highest dose of methylphenidate. […] Activity and attention were evaluated in unmedicated healthy controls using the same procedure as children with ADHD, and fMRI followed within the same time frame.
(§2) Highly accurate laboratory-based measures of activity and attention were obtained by having the children perform a computerized vigilance test while an infrared motion analysis system captured and recorded movements (see Methods). […]
(§3) Assessment of Activity and Attention. […] In brief, children sat in front of a computer and were evaluated using a simple GO/NO-GO CPT in which the subject responds to visual presentation of a target and withholds response to a non-target stimuli that appear in the center of the screen at a fixed 2 second […] interval (Greenberg et al., Psychopharmacol. Bull. 23: 279-282,1987). […]

The nature of data set [3]: Infrared motion analysis of activity during CPT in children with ADHD. It is filed as in vivo, human. The following applies: ADHD boys (n=11) vs placebo; P<0.05. As to the method: as §1, §2, §3
A short description of data set [4]: 17-item Hamilton Depression Rating Scale (HDRS) in depressed subjects. It is filed as in vivo, human. The following applies: eight weeks, CDP-choline 6/12, fluoxetine 17/41. The protocol: In a second study, twelve depressed subjects (mean age 40) received 500 mg of an oral formulation of CDP-choline twice daily for eight weeks.
The conditions of data set [5]: in vivo; cited from earlier work.
For data set [6] the following is noted: in vivo; cited from earlier work. The source holds these as a separate data set.
Data set [7] in a line: Forced swim test (FST), a rodent model of depression. It is filed as in vivo. To be noted: rats, IP; for effect in the forced swim test: citicoline 50-500 mg/kg, molar equivalent cytidine 23.8-238 mg/kg, choline 13.7-136.6 mg/kg. From the text:
The effects of citicoline were examined in the forced swim test (FST), a rodent model of depression.

The subject of another data set is brain phosphodiesters. Nature of the data set: Phosphorus-31 MR spectroscopy of brain lipid metabolite resonances in healthy subjects. It is filed as in vivo, human. The following applies: healthy subjects (mean age 70), 500 mg oral daily, 6 to 12 weeks; p=0.008. As to the method:
To assess whether chronic CDP-choline administration leads to detectable changes in lipid metabolite resonances in phosphorus-31 MR spectra, eighteen healthy subjects (mean age: 70) were administered 500 mg of an oral formulation of CDP-choline daily for a six week period. From weeks 6 to 12, half of the subjects continued to receive CDP-choline and half received placebo in a double-blind fashion. […] CDP-choline administration, therefore, improves measures of verbal fluency and spatial memory in healthy adults and results in increased brain phospholipid synthesis in older adults, particularly during chronic administration.

For data set [8] the following is noted: cited from earlier work.
The conditions of data set [9]: cited from earlier work. The source holds these as a separate data set.

Turning to `COC(=O)C(c1ccccc1)C1CCCCN1` (centres unmarked) [methylphenidate], the T2-RT in thalamus result in data set [1] is “not affected”. In addition, the CPT performance accuracy result in data set [2] (highest dose vs placebo, P<0.05) was “enhancing performance accuracy”. In addition, the “response variability (S.D.) of CPT response latency” value in data set [2] (reduced from 242 on placebo, P<0.005) was 149 ms. The “complexity of the movement pattern” value in data set [3] was “increasing the complexity of the movement pattern”.
With `CNCCC(Oc1ccc(C(F)(F)F)cc1)c1ccccc1` (centres unmarked) [fluoxetine], the “complete responses (share of subjects)” value in data set [4] was determined as 41%.
In the case of `O=c1ccn([C@@H]2O[C@H](CO)[C@@H](O)[C@H]2O)c(=O)[nH]1` [uridine], the tolerability in humans result in [5] is “well tolerated”. The tolerability in mammals entry in data set [6] was “well tolerated”.
With `CN(CC(=O)O)C(=N)N` [Creatine, creatine], the tolerability in humans entry in [5] was “well tolerated at relatively high doses”.
`Nc1ccn([C@@H]2O[C@H](CO)[C@@H](O)[C@H]2O)c(=O)n1` [cytidine]: the “effect in the forced swim test” value in data set [7] is reported as “significant antidepressant effects”.
`CC(=O)OC[C@H]1O[C@@H](n2ccc(=O)[nH]c2=O)[C@H](OC(C)=O)[C@@H]1OC(C)=O` [triacetyl uridine]: the tolerability in mammals result in data set [6] is listed as “well tolerated”.
With `C[N+](C)(C)CCOP(=O)(O)OP(=O)([O-])OC[C@H]1O[C@@H](n2ccc(N)nc2=O)[C@H](O)[C@@H]1O` [CDP-choline, cytidine 5′-diphosphocholine], the “complete responses (share of subjects)” value in [4] is 50%. For the same compound, in [7] (high doses), the “effect in the forced swim test at high doses” value was “small pro-depressant effects”. Also, in data set [7], the “effect in the forced swim test” value is listed as “did not have antidepressant effects”. The tolerability in mammals entry in [6] is “well tolerated”. In the data set on brain phosphodiesters, the brain phosphodiesters result was “significant increase”. For the same compound, in [8] (orally or intravenously), the “conversion into the two major circulating metabolites, choline and cytidine” value is on record as “rapidly converted”. In data set [8] (share of dose), the excretion via lung is listed as 12.9% and the excretion via urine is 2.4%. In addition, in [9] (in vivo), the “reported cases of overdoses” value is reported as “no reported cases of overdoses”. Moreover, the “symptoms on ingestion of large amounts” value in data set [9] (preclinical studies, salivation, lacrimation, urination, defecation, vomiting) is “common cholinergic symptoms”.
